{"source": "patent US20130202657A1", "about": "“FOAMS OR PARTICLES FOR APPLICATIONS SUCH AS DRUG DELIVERY” (BASF SE, priority 2010, published 2013)", "key": {"[1]": {"experiment": "Solubility of APIs in PVPVA (thin layer dried on glass slide, optical microscopy)", "format": "physicochemical", "conditions": "% by mass in PVPVA; bright-field and cross-polarized optical microscopy", "experimental": "The effect of API loading on PVPVA foams was studied next. To make API-laden polymer foams, a model API was added to the polymer before foaming. Clotrimazole and cholesterol were used in this example as model APIs. PVPVA was loaded with the API at concentrations ranging from 0% by mass to 30% by mass, as described above. The solubility of APIs in PVPVA was first tested by dissolving both the API and the polymer in a solvent, then spreading a thin layer on a glass slide to dry. […] These crystals were visible under bright-field and cross-polarized optical microscopy. […] Solid solutions of clotrimazole were obtained at up to 20% loading."}, "[2]": {"conditions": "at typical operating pressures and temperatures; cited from earlier work"}}, "data": [{"compound": "CC(C)CCC[C@@H](C)[C@H]1CC[C@H]2[C@@H]3CC=C4C[C@@H](O)CC[C@]4(C)[C@H]3CC[C@]12C", "note": "[cholesterol]", "values": [{"measurement": "API loading in PVPVA at which crystals precipitate", "setting": "[1]", "value": "about 30%"}, {"measurement": "solubility in CO2", "setting": "[2]", "value": "about 2 g/l"}]}]}
